Measured values reported in patent US20120301895A1, “METHODS OF MODULATING BINDING OF SON OF SEVENLESS TO PHOSPHATIDIC ACID AND IDENTIFYING COMPOUNDS THAT MODULATE SUCH BINDING” (THE RESEARCH FOUNDATION OF STATE UNIVERSITY OF NEW YORK, priority 2007, published 2012).

Tested on: S6K and 4E-BP1
Assay: Phosphorylation of mTOR substrates S6K and 4E-BP1 in MDA-MB-231 cells (Western blot)
Assay type: cell-based, human
Conditions: honokiol 20 μM, 0.5% serum
Procedure: In FIG. 15A, MDA-MB-231 cells were plated in DMEM with 10% serum. 48 hr later the cells were shifted to 0.5% for 16 hr. Honokiol (20 μM) or control ethanol was then added for the indicated times. The cells were then harvested and analyzed for levels of S6K, phosphorylated S6K (P-S6K), 4E-BP1, and P-4E-BP1 by Western blot analysis as described previously (Zheng et al., “Phospholipase D Couples Survival and Migration Signals in Response to Stress in Human Breast Cancer Cells,” J. Biol. Chem. 281:15862-8 (2006), which is hereby incorporated by reference in its entirety). In FIG. 15B, 786-O cells were plated and then shifted to media containing 0.5% serum 24 hr later. 18 hr later, the cells were treated with 1-Bt0H (0.8%), honokiol (Hon) (20 μM), and t-BtOH (0.8%) as indicated. Cell lysates were prepared 4 hr later and examined for HIF2α and actin expression by Western lot analysis. The experiment shown is representative of two independent experiments.
Extraction of proteins from cultured cells and Western blot analysis of extracted proteins was performed using the ECL system (Amersham) as described previously (Chen et al., “Alternative Phospholipase D/mTOR Survival Signal in Human Breast Cancer Cells,” Oncogene 24:672-9 (2005), which is hereby incorporated by reference in its entirety). […]

C=CCc1ccc(O)c(-c2ccc(O)c(CC=C)c2)c1 [honokiol, Honokiol] was tested, and the “phosphorylation of 4E-BP1” value was “suppressed” and the “phosphorylation of S6K” value was “suppressed”.
